Peptide text beside a SMILES is read from it.
Columns and labels:
[1] = tested on: human red blood cells (hRBC); experiment: Hemolysis of human red blood cells; type: cell-based; conditions: red cells of human, 1 h
Outline: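 PBS-washed human red blood cells (20% v/v) were incubated with peptide at 200 μg/mL for 1 h at 37 °C with shaking. Supernatant OD was read at 540 nm after 8-fold dilution. Hemolysis is expressed as percent of the water control.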

[2] = tested on: Escherichia coli MCR-1 Af 45; conditions: MCR-1 Af 45
Outline: (§1)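 Broth microdilution; cation-adjusted MHII; inoculum ~5×10^5 CFU/mL from 0.5 McFarland saline suspension; peptide two-fold serial dilutions; polysorbate 80 0.002% final; peptide stock 1 mg/mL in water.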

[3] = tested on: Escherichia coli ATCC 25922; conditions: ATCC 25922
Outline: as §1

[4] = tested on: Klebsiella pneumoniae SSI3010; conditions: SSI3010
Outline: as §1

| SMILES | Hemolysis at 0.2 g/L [1] | Escherichia coli MCR-1 Af 45 MIC [2] | Escherichia coli ATCC 25922 MIC [3] | Klebsiella pneumoniae SSI3010 MIC [4] |
| --- | --- | --- | --- | --- |
| CCCC[C@H](NC(=O)[C@H](CCCNC(=N)N)NC(=O)[C@H](CCN)NC(=O)[C@@H]1CSSC[C@H](NC(=O)[C@H](Cc2ccc(O)cc2)NC(=O)[C@@H](NC(=O)[C@@H](NC(=O)[C@@H]2CCCN2C(=O)[C@@H](NC(=O)[C@@H]2CCCN2C(=O)[C@H](CCCCN)NC(=O)[C@@H](N)CCCCN)C(C)C)[C@@H](C)CC)[C@@H](C)CC)C(=O)N[C@@H](CC(N)=O)C(=O)N[C@@H](CCCNC(=N)N)C(=O)N[C@@H](CCN)C(=O)N[C@@H]([C@@H](C)O)C(=O)N[C@H](CCN)C(=O)N[C@@H](CCCCN)C(=O)N1)C(=O)O [Example 66] (HELM PEPTIDE1{K.K.P.V.P.I.I.Y.C.N.R.[Dab].T.[NCC[C@@H](N[*:1])C(=O)[*:2]].K.C.[Dab].R.[Nle]}$PEPTIDE1,PEPTIDE1,9:R3-16:R3$$$V2.0) | 0% | 0.0625 µg/mL | 0.03125 µg/mL | 0.125 µg/mL |
| CCCC[C@H](NC(=O)[C@H](CCCNC(=N)N)NC(=O)[C@H](CCC(N)=O)NC(=O)[C@@H]1CSSC[C@H](NC(=O)[C@H](Cc2ccc(O)cc2)NC(=O)[C@@H](NC(=O)[C@@H](NC(=O)[C@@H]2CCCN2C(=O)[C@@H](NC(=O)[C@@H]2CCCN2C(=O)[C@H](CCCCN)NC(=O)[C@@H](N)CCCCN)C(C)C)[C@@H](C)CC)[C@@H](C)CC)C(=O)N[C@@H](CC(N)=O)C(=O)N[C@@H](CCCNC(=N)N)C(=O)N[C@@H](CCN)C(=O)N[C@@H]([C@@H](C)O)C(=O)N[C@H](CCN)C(=O)N[C@@H](CCCCN)C(=O)N1)C(=O)O [Example 67] (HELM PEPTIDE1{K.K.P.V.P.I.I.Y.C.N.R.[Dab].T.[NCC[C@@H](N[*:1])C(=O)[*:2]].K.C.Q.R.[Nle]}$PEPTIDE1,PEPTIDE1,9:R3-16:R3$$$V2.0) | 0% | 0.25 µg/mL | 0.125 µg/mL | 0.25 µg/mL |
| CCCC[C@H](NC(=O)[C@H](CCCNC(=N)N)NC(=O)[C@H](CCCNC(=N)N)NC(=O)[C@@H]1CSSC[C@H](NC(=O)[C@H](Cc2ccc(O)cc2)NC(=O)[C@@H](NC(=O)[C@@H](NC(=O)[C@@H]2CCCN2C(=O)[C@@H](NC(=O)[C@@H]2CCCN2C(=O)[C@H](CCCCN)NC(=O)[C@@H](N)CCCCN)C(C)C)[C@@H](C)CC)[C@@H](C)CC)C(=O)N[C@@H](CC(N)=O)C(=O)N[C@@H](CCCNC(=N)N)C(=O)N[C@@H](CCN)C(=O)N[C@@H]([C@@H](C)O)C(=O)N[C@H](CCN)C(=O)N[C@@H](CCCCN)C(=O)N1)C(=O)O [Example 68] (HELM PEPTIDE1{K.K.P.V.P.I.I.Y.C.N.R.[Dab].T.[NCC[C@@H](N[*:1])C(=O)[*:2]].K.C.R.R.[Nle]}$PEPTIDE1,PEPTIDE1,9:R3-16:R3$$$V2.0) | 0% | 0.0625 µg/mL | 0.03125 µg/mL | ≤0.125 µg/mL |
| CCCC[C@H](NC(=O)[C@H](CCCNC(=N)N)NC(=O)[C@H](CCC(N)=O)NC(=O)[C@@H]1CSSC[C@H](NC(=O)[C@H](Cc2ccc(O)cc2)NC(=O)[C@@H](NC(=O)[C@@H](NC(=O)[C@@H]2CCCN2C(=O)[C@@H](NC(=O)[C@@H]2CCCN2C(=O)[C@H](CCCCN)NC(=O)[C@@H](N)CCCCN)C(C)C)[C@@H](C)CC)[C@@H](C)CC)C(=O)N[C@@H](CC(N)=O)C(=O)N[C@@H](CCCNC(=N)N)C(=O)N[C@@H](CCCNC(=N)N)C(=O)N[C@@H]([C@@H](C)O)C(=O)N[C@H](CCN)C(=O)N[C@@H](CCN)C(=O)N1)C(=O)O [Example 69] (HELM PEPTIDE1{K.K.P.V.P.I.I.Y.C.N.R.R.T.[NCC[C@@H](N[*:1])C(=O)[*:2]].[Dab].C.Q.R.[Nle]}$PEPTIDE1,PEPTIDE1,9:R3-16:R3$$$V2.0) | 0% | 0.125 µg/mL | 0.0625 µg/mL | 0.125 µg/mL |
| CCCC[C@H](NC(=O)[C@H](CCCNC(=N)N)NC(=O)[C@H](CCN)NC(=O)[C@@H]1CSSC[C@H](NC(=O)[C@H](Cc2ccc(O)cc2)NC(=O)[C@@H](NC(=O)[C@@H](NC(=O)[C@@H]2CCCN2C(=O)[C@@H](NC(=O)[C@@H]2CCCN2C(=O)[C@H](CCCCN)NC(=O)[C@H](N)CCCCN)C(C)C)[C@@H](C)CC)[C@@H](C)CC)C(=O)N[C@@H](CC(N)=O)C(=O)N[C@@H](CCCNC(=N)N)C(=O)N[C@@H](CCCNC(=N)N)C(=O)N[C@@H]([C@@H](C)O)C(=O)N[C@H](CCN)C(=O)N[C@@H](CCCCN)C(=O)N1)C(=O)O [Example 70] (HELM PEPTIDE1{[dK].K.P.V.P.I.I.Y.C.N.R.R.T.[NCC[C@@H](N[*:1])C(=O)[*:2]].K.C.[Dab].R.[Nle]}$PEPTIDE1,PEPTIDE1,9:R3-16:R3$$$V2.0) | 0% | 0.0625 µg/mL | 0.03125 µg/mL | 0.125 µg/mL |
| CC[C@H](C)[C@H](NC(=O)[C@@H](NC(=O)[C@@H]1CCCN1C(=O)[C@@H](NC(=O)[C@@H]1CCCN1C(=O)[C@H](CCCNC(=N)N)NC(=O)[C@@H](N)CCCCN)C(C)C)[C@@H](C)CC)C(=O)N[C@@H](Cc1ccc(O)cc1)C(=O)N[C@H]1CSSC[C@@H](C(=O)N[C@@H](CCN)C(=O)N[C@@H](CCCNC(=N)N)C(=O)N[C@@H](Cc2ccc(O)cc2)C(=O)O)NC(=O)[C@H](CCCCN)NC(=O)[C@@H](CCN)NC(=O)[C@H]([C@@H](C)O)NC(=O)[C@H](CCN)NC(=O)[C@H](CCCNC(=N)N)NC(=O)[C@H](CC(N)=O)NC1=O [Example 71] (HELM PEPTIDE1{K.R.P.V.P.I.I.Y.C.N.R.[Dab].T.[NCC[C@@H](N[*:1])C(=O)[*:2]].K.C.[Dab].R.Y}$PEPTIDE1,PEPTIDE1,9:R3-16:R3$$$V2.0) | 0% | 0.0625 µg/mL | 0.0625 µg/mL | 0.0625 µg/mL |
| CCCC[C@H](NC(=O)[C@H](CCCNC(=N)N)NC(=O)[C@H](CCN)NC(=O)[C@@H]1CSSC[C@H](NC(=O)[C@H](Cc2ccc(O)cc2)NC(=O)[C@H](CCCNC(=N)N)NC(=O)[C@@H](NC(=O)[C@@H]2CCCN2C(=O)[C@@H](NC(=O)[C@@H]2CCCN2C(=O)[C@H](CCCNC(=N)N)NC(=O)[C@@H](N)CCCCN)C(C)C)[C@@H](C)CC)C(=O)N[C@@H](CC(N)=O)C(=O)N[C@@H](CCCNC(=N)N)C(=O)N[C@@H](CCN)C(=O)N[C@@H]([C@@H](C)O)C(=O)N[C@H](CCN)C(=O)N[C@@H](CCCCN)C(=O)N1)C(=O)O [Example 72] (HELM PEPTIDE1{K.R.P.V.P.I.R.Y.C.N.R.[Dab].T.[NCC[C@@H](N[*:1])C(=O)[*:2]].K.C.[Dab].R.[Nle]}$PEPTIDE1,PEPTIDE1,9:R3-16:R3$$$V2.0) | 0% | 0.0625 µg/mL | ≤0.0625 µg/mL | ≤0.25 µg/mL |
| CCCC[C@H](NC(=O)[C@H](CCCNC(=N)N)NC(=O)[C@H](CCN)NC(=O)[C@H]1NC(=O)[C@H](CCCCN)NC(=O)[C@@H](CCN)NC(=O)[C@H]([C@@H](C)O)NC(=O)[C@H](CCN)NC(=O)[C@H](CCCNC(=N)N)NC(=O)[C@H](CC(N)=O)NC(=O)[C@@H](NC(=O)[C@H](Cc2ccc(O)cc2)NC(=O)[C@@H](NC(=O)[C@@H](NC(=O)[C@@H]2CCCN2C(=O)[C@@H](NC(=O)[C@@H]2CCCN2C(=O)[C@H](CCCNC(=N)N)NC(=O)[C@@H](N)CCCCN)C(C)C)[C@@H](C)CC)[C@@H](C)CC)CSSC1(C)C)C(=O)O [Example 73] (HELM PEPTIDE1{K.R.P.V.P.I.I.Y.C.N.R.[Dab].T.[NCC[C@@H](N[*:1])C(=O)[*:2]].K.[Pen].[Dab].R.[Nle]}$PEPTIDE1,PEPTIDE1,9:R3-16:R3$$$V2.0) | 0% | 0.0625 µg/mL | ≤0.125 µg/mL | 0.125 µg/mL |
| CCCC[C@H](NC(=O)[C@H](CCCNC(=N)N)NC(=O)[C@H](CCN)NC(=O)[C@@H]1CSSC[C@H](NC(=O)[C@H](Cc2ccc(O)cc2)NC(=O)[C@H](CCCNC(=N)N)NC(=O)[C@@H](NC(=O)[C@@H]2C[C@@H](N)CN2C(=O)[C@@H](NC(=O)[C@@H]2CCCN2C(=O)[C@H](CCCCN)NC(=O)[C@@H](N)CCCCN)C(C)C)[C@@H](C)CC)C(=O)N[C@@H](CC(N)=O)C(=O)N[C@@H](CCCNC(=N)N)C(=O)N[C@@H](CCCNC(=N)N)C(=O)N[C@@H]([C@@H](C)O)C(=O)N[C@H](CCN)C(=O)N[C@@H](CCCCN)C(=O)N1)C(=O)O [Example 74] (HELM PEPTIDE1{K.K.P.V.[N[C@@H]1C[C@@H](C(=O)[*:2])N([*:1])C1].I.R.Y.C.N.R.R.T.[NCC[C@@H](N[*:1])C(=O)[*:2]].K.C.[Dab].R.[Nle]}$PEPTIDE1,PEPTIDE1,9:R3-16:R3$$$V2.0) | 0% | 0.0625 µg/mL | 0.03125 µg/mL | 0.0625 µg/mL |
| CCCC[C@H](NC(=O)[C@H](CCCNC(=N)N)NC(=O)[C@H](CCN)NC(=O)[C@@H]1CSSC[C@H](NC(=O)[C@H](Cc2ccc(O)cc2)NC(=O)[C@H](CCCNC(=N)N)NC(=O)[C@@H](NC(=O)[C@@H]2CCCN2C(=O)[C@@H](NC(=O)[C@@H]2CCCN2C(=O)[C@H](CCCNC(=N)N)NC(=O)[C@@H](N)CCCCN)C(C)C)[C@@H](C)CC)C(=O)N[C@@H](CC(N)=O)C(=O)N[C@@H](CCCNC(=N)N)C(=O)N[C@@H](CCCNC(=N)N)C(=O)N[C@@H]([C@@H](C)O)C(=O)N[C@H](CCN)C(=O)N[C@@H](CCCCN)C(=O)N1)C(=O)O [Example 75] (HELM PEPTIDE1{K.R.P.V.P.I.R.Y.C.N.R.R.T.[NCC[C@@H](N[*:1])C(=O)[*:2]].K.C.[Dab].R.[Nle]}$PEPTIDE1,PEPTIDE1,9:R3-16:R3$$$V2.0) | 0% | 0.0625 µg/mL | ≤0.0625 µg/mL | 0.0625 µg/mL |
